In patent US20240018115A1, “ALLOSTERIC CHROMENONE INHIBITORS OF PHOSPHOINOSITIDE 3-KINASE (PI3K) FOR THE TREATMENT OF DISEASE” (Petra Pharma Corporation, priority 2022, published 2024) one finds IC50 data, which are given here for three compounds.

This experiment has as its target T1, PI3K-Alpha kinase H1047R mutant (Homo sapiens, UniProt P42336, H1047R).
T1 construct: host or cells: MDA-MB-453
The experiment is described as follows: PI3K-Alpha Kinase (PIK3CA) Activity, H1047R Mutant In Vitro Cell Based Assay (MDA-MB-453 cells, AlphaLisa SureFire Ultra). To be noted: 0% FBS, 3 hours treatment, relative IC50. As for the experimental part: PI3K-Alpha Kinase (PIK3CA) Activity, H1047R Mutant In Vitro Cell Based Assay and Determining IC50 Values for Inhibitors
The MDA-MB-453 (ATCC-HTB-131) cell line was obtained from the American Type Culture Collection (Manassas, VA). Cells were maintained in Dulbecco's Modified Eagle Media (DMEM, Gibco 11965-092) supplemented with 10% Fetal Bovine Serum, heat inactivated (FBS HI, Gibco 10082-147), 1× non-essential amino acids (NEAA, Gibco 11140-050), and 1 mM sodium pyruvate (Gibco 11360-070). Cultures were maintained in a humidified incubator at 37° C. under 5% CO2/95% air.
For compound testing in 0% FBS, MDA-MB-453 cells were seeded at a density of 1.5×10^4 cells per well in white 384-well plates in 20 μl of Minimum Essential Media (MEM) assay media with 1×NEAA, 1 mM sodium pyruvate, and 1 μg/mL human insulin (Sigma I9278). Compounds dissolved in 10 mM stock solutions in DMSO were serially diluted 1:3 in DMSO to generate a 10-point dilution series and plated using an acoustic liquid handler system (Echo 550 Series Liquid Handler, Labcyte). A 5× intermediate compound dilution plate in MEM with 1×NEAA and 1 mM sodium pyruvate (150 μM starting compound concentration in 1.5% DMSO) was then prepared. Five μl of the intermediate serially diluted compounds were added to the cell plate to final concentrations ranging from […] in 0.3% DMSO. 0.3% DMSO alone was used to establish the maximum (MAX) signal and GDC-0032 at a final concentration of 1 μM was used as a reference compound for the minimum (MIN) signal. After 3 hours treatment, the medium was removed, and the cells lysed in 10 μL of 1× SureFire Lysis buffer with shaking for 10 minutes at room temperature. The Acceptor Mix (Reaction Buffer 1+Reaction Buffer 2+Activation Buffer+SureFire Ultra Acceptor Beads) was prepared by diluting Activation buffer 25-fold in combined Reaction Buffer 1 and Reaction Buffer 2. The Acceptor beads were diluted 50-fold in the combined Reaction Buffers. Five μL of Acceptor Mix was added to each well, the plate was sealed and covered with foil and incubated for 1 hour at room temperature. The Donor Mix (dilution buffer+SureFire Ultra Donor Beads) was prepared by diluting Donor Beads 50-fold in dilution buffer. Five μL of the Donor Mix was added to each well and the plate sealed and covered with foil and incubated for 1 hour at room temperature in the dark. The plates were read on a Neo2 plate reader instrument from Biotek using standard AlphaLisa settings. Compounds were tested in duplicate and the average % inhibition at each compound concentration was used to generate a single dose response curve. The data were processed using the Genedata-Screener tool. Relative IC50 values were determined using luminescence units by calculating percent inhibition with respect to the in-plate “MIN” (GDC-0032 reference control) and “MAX” (DMSO) controls. The data was analyzed using a 4-parameter nonlinear logistic equation (four-parameter logistic concentration-response curve):
Y=bottom+[(top−bottom)/1+(X/IC50)slope]
where Y=% inhibition, X=concentration of inhibitor, bottom=minimum value of y attained by curve-fit, top=maximum value of y attained by curve-fit and slope=steepness of curve at the IC50.
% Inhibition=[(signal at X−median Min)/(median Max−median Min)]×100
IC50: concentration of compound that reduces a given response (ligand binding, enzyme response) by 50%. Relative IC50: concentration giving half the compound's maximum response.
A general note: Alpha assays give light when donor and acceptor beads are brought close together.

T1 sequence (P42336 whole entry H1047R): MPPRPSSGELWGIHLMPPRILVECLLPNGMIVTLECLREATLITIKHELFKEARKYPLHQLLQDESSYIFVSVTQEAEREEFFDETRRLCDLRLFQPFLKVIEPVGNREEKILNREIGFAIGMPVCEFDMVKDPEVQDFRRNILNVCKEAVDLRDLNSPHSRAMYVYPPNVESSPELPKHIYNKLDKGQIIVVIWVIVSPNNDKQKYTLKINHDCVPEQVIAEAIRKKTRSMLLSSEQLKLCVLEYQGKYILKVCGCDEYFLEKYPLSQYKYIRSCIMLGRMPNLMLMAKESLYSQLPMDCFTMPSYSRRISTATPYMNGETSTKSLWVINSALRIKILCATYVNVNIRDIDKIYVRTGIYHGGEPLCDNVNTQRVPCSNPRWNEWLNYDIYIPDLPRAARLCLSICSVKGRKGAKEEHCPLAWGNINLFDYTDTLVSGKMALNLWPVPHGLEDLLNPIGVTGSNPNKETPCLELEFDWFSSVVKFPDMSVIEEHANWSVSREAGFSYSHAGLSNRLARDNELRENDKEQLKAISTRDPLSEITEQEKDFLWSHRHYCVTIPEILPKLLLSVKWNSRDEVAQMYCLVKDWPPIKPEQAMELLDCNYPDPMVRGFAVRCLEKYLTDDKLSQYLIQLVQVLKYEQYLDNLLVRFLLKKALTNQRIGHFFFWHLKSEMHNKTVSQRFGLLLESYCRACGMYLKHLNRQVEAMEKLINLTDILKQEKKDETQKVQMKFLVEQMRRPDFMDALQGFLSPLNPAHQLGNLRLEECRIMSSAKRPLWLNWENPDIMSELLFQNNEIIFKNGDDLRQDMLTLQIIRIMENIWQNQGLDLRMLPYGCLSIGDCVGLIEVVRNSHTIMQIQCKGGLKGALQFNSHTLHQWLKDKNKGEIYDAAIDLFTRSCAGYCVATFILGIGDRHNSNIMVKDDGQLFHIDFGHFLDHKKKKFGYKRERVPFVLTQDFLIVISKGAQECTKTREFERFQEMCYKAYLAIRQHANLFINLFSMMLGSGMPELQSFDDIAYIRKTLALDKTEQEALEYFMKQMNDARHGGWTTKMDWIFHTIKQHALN
T1 sequence (P27986 whole entry partner): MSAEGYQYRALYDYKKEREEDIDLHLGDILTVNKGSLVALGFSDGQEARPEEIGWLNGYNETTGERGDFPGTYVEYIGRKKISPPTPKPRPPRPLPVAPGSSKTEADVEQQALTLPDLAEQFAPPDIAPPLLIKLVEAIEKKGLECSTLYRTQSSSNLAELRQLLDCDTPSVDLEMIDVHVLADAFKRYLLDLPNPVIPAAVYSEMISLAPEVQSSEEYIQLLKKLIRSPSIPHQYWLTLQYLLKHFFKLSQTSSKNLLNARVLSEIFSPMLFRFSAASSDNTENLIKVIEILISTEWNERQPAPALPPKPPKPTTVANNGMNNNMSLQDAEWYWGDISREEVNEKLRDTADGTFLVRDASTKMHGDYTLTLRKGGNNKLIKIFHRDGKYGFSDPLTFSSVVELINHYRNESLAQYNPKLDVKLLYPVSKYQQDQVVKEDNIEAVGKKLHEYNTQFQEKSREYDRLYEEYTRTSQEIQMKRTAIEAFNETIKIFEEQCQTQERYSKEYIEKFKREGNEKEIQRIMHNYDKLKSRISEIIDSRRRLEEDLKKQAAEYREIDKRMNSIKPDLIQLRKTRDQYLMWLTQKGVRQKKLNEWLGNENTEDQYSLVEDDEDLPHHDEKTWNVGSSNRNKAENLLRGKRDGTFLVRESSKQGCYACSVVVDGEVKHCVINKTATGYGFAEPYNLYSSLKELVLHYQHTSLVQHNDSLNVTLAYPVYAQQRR

In general, IC50 refers to the midpoint of a concentration-inhibition curve. A lower IC50 goes with greater potency in that assay. As for `Cc1cc([C@@H](C)Nc2cccnc2C(=O)NCC(C)(C)O)c2oc(-c3ccccc3)c(C)c(=O)c2c1` [Example 177A, 3-[[(1R)-1-(3,6-Dimethyl-4-oxo-2-phenyl-chromen-8-yl)ethyl]amino]-N-(2-hydroxy-2-methyl-propyl)pyridine-2-carboxamide], the half-maximal inhibitory concentration (IC50) is less than 500 nM.
For `Cc1cc([C@@H](C)Nc2cccnc2C(=O)N[C@@H]2CCOC2)c2oc(-c3ccccc3)c(C)c(=O)c2c1` [Example 178A, 3-[[(1R)-1-(3,6-Dimethyl-4-oxo-2-phenyl-chromen-8-yl)ethyl]amino]-N-[(3R)-tetrahydrofuran-3-yl]pyridine-2-carboxamide], the half-inhibitory concentration (IC50) was less than 500 nM.
Next, `Cc1cc([C@@H](C)Nc2ccccc2CO)c2oc(-c3cccnc3)c(C)c(=O)c2c1` [Example 224C, 8-[(1R)-1-[2-(Hydroxymethyl)anilino]ethyl]-3,6-dimethyl-2-(3-pyridyl)chromen-4-one]: less than 500 nM.
